Reference: patent publication US8871767B2, “2-arylimidazo[1,2-B]pyridazine, 2-phenylimidazo[1,2-A]pyridine, and 2-phenylimidazo[1,2-A]pyrazine derivatives” (Hengrui (USA) Ltd., priority 2010, dated 2014)
Read-outs that look alike come from different tables or passages of the source.

Key:
[1] = test system: Hedgehog pathway activation (GLi-luciferase reporter) in Shh Light II reporter cells; experiment: Hedgehog pathway activation on Shh Light II reporter cells measured by luciferase activity; type: cell-based; settings: Mus musculus, Shh Light II
In short: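 Shh Light II reporter cells carrying a hedgehog-responsive GLi-luciferase reporter were stimulated either with 500 nM SAG, a direct Smoothened agonist, or with conditioned media containing human Sonic Hedgehog (hShh). Test compounds were evaluated for blocking this pathway activation, quantified by luciferase activity. Cell viability was monitored in parallel with the Celltiter-Blue® assay.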

[2] = test system: Hedgehog pathway activation on 10T1/2/Smo#3 cells (C3H10T1/2 cells transfected with human Smoothened receptor); experiment: Hedgehog pathway activation on 10T1/2/Smo#3 cells measured by ALP activity; type: cell-based; settings: Mus musculus, C3H 10T1/2, 10T1/2/Smo#3 cells
In short: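 Inhibition of alkaline phosphatase induction, read fluorometrically from 4-methylumbelliferyl phosphate conversion, gave IC50 values; CellTiter-Blue tracked viability in parallel. Cells were the human Smo-transfected 10T1/2/Smo#3 pool, stimulated by 10-20% hShh conditioned medium or the Smo agonist SAG (500 nM).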

[3] = SAG activation (500 nM SAG), read-out: Shh Light II luciferase activity (SAG activation)
[4] = hShh activation, read-out: Shh (IC50, inhibition of Hedgehog pathway activation)
[5] = hShh activation, read-out: Shh Light II luciferase activity (hShh activation)
[6] = hShh activation, ALP activity, read-out: 10T1/2/Smo#3 ALP activity (hShh Activation)
[7] = measured by ALP activity, read-out: ALP (IC50, inhibition of Hedgehog pathway activation)

Question: How did the IC50 [1, 3] turn out when CC(C)(C)C(=O)Nc1cc(-c2cn3nc(-c4cccnc4C(F)(F)F)ccc3n2)ccc1Cl [Example 642, N-(2-chloro-5-(6-(2-(trifluoromethyl)pyridin-3-yl)imidazo[1,2-b]pyridazin-2-yl)phenyl)pivalamide] was run?
Answer: < 300 nM

Question: And the IC50 [1, 4]?
Answer: 13 nM

Question: And the IC50 [1, 5]?
Answer: < 300 nM

Question: And the IC50 [2, 6]?
Answer: < 300 nM

Question: And the IC50 [2, 7]?
Answer: 6 nM

Question: CC(C)(C)C(=O)Nc1cc(-c2cn3nc(OCCN4CCOCC4)ccc3n2)ccc1C(F)(F)F [Example 306, N-(5-(6-(2-morpholinoethoxy)imidazo[1,2-b]pyridazin-2-yl)-2-(trifluoromethyl)phenyl)pivalamide] was tested. Which IC50 [1, 4] did it give?
Answer: 402 nM

Question: And the IC50 [2, 7]?
Answer: 446 nM

Question: For CCOc1ccc2nc(-c3ccc(C(F)(F)F)c(NC(=O)c4ccccc4)c3)cn2n1 [Example 191, N-(5-(6-ethoxyimidazo[1,2-b]pyridazin-2-yl)-2-(trifluoromethyl)phenyl)benzamide], which IC50 [1, 4] is on record?
Answer: 579 nM

Question: What about the IC50 [2, 7] of the same molecule?
Answer: 1570 nM

Question: Which IC50 [1, 3] does the source give for Cc1c(Cl)nn2cc(-c3ccc(C(F)(F)F)c(NC(=O)C(C)(C)C)c3)nc2c1C [Example 198, N-(5-(6-chloro-7,8-dimethylimidazo[1,2-b]pyridazin-2-yl)-2-(trifluoromethyl)phenyl)pivalamide] here?
Answer: 3000 to 30000 nM

Question: And the IC50 [1, 4]?
Answer: 1680 nM

Question: And the IC50 [1, 5]?
Answer: 300 to 3000 nM

Question: And the IC50 [2, 6]?
Answer: 300 to 3000 nM

Question: What about the IC50 [2, 7] of the same molecule?
Answer: 1970 nM

Question: With CCc1ccc(-c2cn3nc(-c4ccccc4F)ccc3n2)cc1NC(=O)C(C)(C)C [Example 295, N-(2-ethyl-5-(6-(2-fluorophenyl)imidazo[1,2-b]pyridazin-2-yl)phenyl)pivalamide] as the molecule, how does the IC50 [1, 3] read?
Answer: 300 to 3000 nM

Question: What about the IC50 [1, 4] of the same molecule?
Answer: 320 nM

Question: What about the IC50 [1, 5] of the same molecule?
Answer: < 300 nM

Question: And the IC50 [2, 6]?
Answer: < 300 nM

Question: And the IC50 [2, 7]?
Answer: 326 nM

Question: Which results are given for C[C@H]1CCCC[C@H]1Oc1ccc2nc(-c3ccc(C(F)(F)F)c(NC(=O)C(C)(C)C)c3)cn2n1 [Example 308, N-(5-(6-((1R,2S)-2-methylcyclohexyloxy)imidazo[1,2-b]pyridazin-2-yl)-2-(trifluoromethyl)phenyl)pivalamide]?
Answer: IC50 [1, 4]: 1070 nM; IC50 [2, 7]: 1200 nM

Question: For Cc1ccc(-c2cn3nc(-c4cc(C(F)(F)F)ccc4F)ccc3n2)cc1NC(=O)C(C)(C)C [Example 221, N-(5-(6-(2-fluoro-5-(trifluoromethyl)phenyl)imidazo[1,2-b]pyridazin-2-yl)-2-methylphenyl)pivalamide], which IC50 [1, 4] is on record?
Answer: 86 nM

Question: And the IC50 [2, 7]?
Answer: 105 nM

Question: Which results are given for CCOC(=O)Nc1cc(-c2cn3nc(-c4cccnc4C(F)(F)F)ccc3n2)c(F)cc1Cl [Example 657, ethyl 2-chloro-4-fluoro-5-(6-(2-(trifluoromethyl)pyridin-3-yl)imidazo[1,2-b]pyridazin-2-yl)phenylcarbamate]?
Answer: IC50 [1, 4]: 96 nM; IC50 [2, 7]: 251 nM

Question: Which results are given for Cc1ccc(-c2cn3nc(SCc4ccccc4)ccc3n2)cc1NC(=O)C(C)(C)C [Example 129, N-(5-(6-(benzylthio)imidazo[1,2-b]pyridazin-2-yl)-2-methylphenyl)pivalamide]?
Answer: IC50 [1, 4]: 1770 nM; IC50 [2, 7]: 789 nM

Question: With CNC1CCN(c2ccc3nc(-c4ccc(C(F)(F)F)c(NC(=O)C(C)(C)C)c4)cn3n2)C1 (stereo not shown) [Example 349, N-(5-(6-(3-(methylamino)pyrrolidin-1-yl)imidazo[1,2-b]pyridazin-2-yl)-2-(trifluoromethyl)phenyl)pivalamide] as the molecule, how does the IC50 [1, 4] read?
Answer: 45 nM

Question: What about the IC50 [2, 7] of the same molecule?
Answer: 9 nM

Question: Which IC50 [1, 3] does the source give for Cc1ccc(-c2cn3nc(N4CCOCC4)ccc3n2)cc1NC(=O)C(C)(C)C [Example 128, N-(2-methyl-5-(6-morpholinoimidazo[1,2-b]pyridazin-2-yl)phenyl)pivalamide] here?
Answer: 3000 to 30000 nM

Question: What about the IC50 [1, 4] of the same molecule?
Answer: > 10000 nM

Question: And the IC50 [1, 5]?
Answer: 3000 to 30000 nM

Question: What about the IC50 [2, 6] of the same molecule?
Answer: 300 to 3000 nM

Question: And the IC50 [2, 7]?
Answer: 422 nM

Question: Cc1ccc(-c2cn3nc(Cl)ccc3n2)cc1NC(=O)C(C)(C)C [Example 118, N-(5-(6-chloroimidazo[1,2-b]pyridazin-2-yl)-2-methylphenyl)pivalamide] was tested. Which IC50 [1, 4] did it give?
Answer: 613 nM

Question: And the IC50 [2, 7]?
Answer: 1200 nM

Question: For O=C(Nc1cc(-c2cn3nc(-c4cccnc4C(F)(F)F)ccc3n2)ccc1Cl)N1CCCC1 [Example 656, N-(2-chloro-5-(6-(2-(trifluoromethyl)pyridin-3-yl)imidazo[1,2-b]pyridazin-2-yl)phenyl)pyrrolidine-1-carboxamide], which IC50 [1, 4] is on record?
Answer: 38 nM

Question: What about the IC50 [2, 7] of the same molecule?
Answer: 117 nM

Question: Which IC50 [1, 4] does the source give for CCOC(=O)CCCOc1ccc(-c2ccc3nc(-c4ccc(C)c(NC(=O)C(C)(C)C)c4)cn3n2)c(C(F)(F)F)c1 [Example 428, ethyl 4-(4-(2-(4-methyl-3-pivalamidophenyl)imidazo[1,2-b]pyridazin-6-yl)-3-(trifluoromethyl)phenoxy)butanoate] here?
Answer: 78 nM

Question: And the IC50 [2, 7]?
Answer: 734 nM

Question: Which results are given for CC(C)OC(=O)Nc1cc(-c2cn3nc(-c4cccnc4C(F)(F)F)ccc3n2)ccc1Cl [Example 668, isopropyl 2-chloro-5-(6-(2-(trifluoromethyl)pyridin-3-yl)imidazo[1,2-b]pyridazin-2-yl)phenylcarbamate]?
Answer: IC50 [1, 4]: 283 nM; IC50 [2, 7]: 631 nM

Question: Which IC50 [1, 3] does the source give for COc1ccc2nc(-c3ccc(C)c(NC(=O)C(C)(C)C)c3)c(Cl)n2n1 [Example 109, N-(5-(3-chloro-6-methoxyimidazo[1,2-b]pyridazin-2-yl)-2-methylphenyl)pivalamide] here?
Answer: 3000 to 30000 nM

Question: And the IC50 [1, 4]?
Answer: 2650 nM

Question: And the IC50 [1, 5]?
Answer: 300 to 3000 nM

Question: What about the IC50 [2, 6] of the same molecule?
Answer: 3000 to 30000 nM

Question: And the IC50 [2, 7]?
Answer: 7000 nM

Question: Which IC50 [1, 4] does the source give for Cc1ccc(-c2cn3nc(-c4ccc(F)cc4C(F)(F)F)ccc3n2)cc1NC(=O)C(C)(C)C [Example 396, N-(5-(6-(4-fluoro-2-(trifluoromethyl)phenyl)imidazo[1,2-b]pyridazin-2-yl)-2-methylphenyl)pivalamide] here?
Answer: 31 nM

Question: What about the IC50 [2, 7] of the same molecule?
Answer: 82 nM

Question: With CC(C)(C)C(=O)Nc1cc(-c2cn3nc(C4CCCC4)ccc3n2)ccc1C(F)(F)F [Example 133, N-(5-(6-cyclopentylimidazo[1,2-b]pyridazin-2-yl)-2-(trifluoromethyl)phenyl)pivalamide] as the molecule, how does the IC50 [1, 4] read?
Answer: 487 nM

Question: What about the IC50 [2, 7] of the same molecule?
Answer: 849 nM

Question: CCCC(C)(C)C(=O)Nc1cc(-c2cn3nc(-c4cccnc4C(F)(F)F)ccc3n2)ccc1Cl [Example 667, N-(2-chloro-5-(6-(2-(trifluoromethyl)pyridin-3-yl)imidazo[1,2-b]pyridazin-2-yl)phenyl)-2,2-dimethylpentanamide] was tested. Which IC50 [1, 4] did it give?
Answer: 64 nM

Question: And the IC50 [2, 7]?
Answer: 203 nM

Question: With Cc1ccc(-c2ccc3nc(-c4ccc(C(F)(F)F)c(NC(=O)C(C)(C)C)c4)cn3n2)nc1 [Example 150, N-(5-(6-(5-methylpyridin-2-yl)imidazo[1,2-b]pyridazin-2-yl)-2-(trifluoromethyl)phenyl)pivalamide] as the molecule, how does the IC50 [1, 4] read?
Answer: 1280 nM

Question: What about the IC50 [2, 7] of the same molecule?
Answer: 2740 nM

Question: CC(C)(C)C(=O)Nc1cc(-c2cn3nc(N4CCN(S(C)(=O)=O)CC4)ccc3n2)ccc1C(F)(F)F [Example 234, N-(5-(6-(4-(methylsulfonyl)piperazin-1-yl)imidazo[1,2-b]pyridazin-2-yl)-2-(trifluoromethyl)phenyl)pivalamide] was tested. Which IC50 [1, 4] did it give?
Answer: 547 nM

Question: What about the IC50 [2, 7] of the same molecule?
Answer: 230 nM

Question: With CCc1ccc(-c2cn3nc(-c4cccnc4C(F)(F)F)ccc3n2)cc1NC(=O)N(CC)CC [Example 693, 1,1-diethyl-3-(2-ethyl-5-(6-(2-(trifluoromethyl)pyridin-3-yl)imidazo[1,2-b]pyridazin-2-yl)phenyl)urea] as the molecule, how does the IC50 [1, 4] read?
Answer: 192 nM

Question: And the IC50 [2, 7]?
Answer: 186 nM

Question: O=C(Nc1cc(-c2cn3nc(-c4cccnc4C(F)(F)F)ccc3n2)ccc1F)C1CCCCC1 [Example 677, N-(2-fluoro-5-(6-(2-(trifluoromethyl)pyridin-3-yl)imidazo[1,2-b]pyridazin-2-yl)phenyl)cyclohexanecarboxamide] was tested. Which IC50 [1, 4] did it give?
Answer: 146 nM

Question: What about the IC50 [2, 7] of the same molecule?
Answer: 637 nM

Question: Which IC50 [1, 3] does the source give for Cc1ccc(-c2cn3ncccc3n2)cc1NC(=O)C(C)(C)C [Example 105, N-(5-(imidazo[1,2-b]pyridazin-2-yl)-2-methylphenyl)pivalamide] here?
Answer: 3000 to 30000 nM

Question: And the IC50 [1, 4]?
Answer: 1110 nM

Question: And the IC50 [1, 5]?
Answer: 300 to 3000 nM

Question: What about the IC50 [2, 6] of the same molecule?
Answer: 300 to 3000 nM

Question: And the IC50 [2, 7]?
Answer: 1810 nM

Question: Which results are given for CCOc1ccc2nc(-c3ccc(C(F)(F)F)c(NC(=O)C(C)(C)C(F)(F)F)c3)cn2n1 [Example 188, N-(5-(6-ethoxyimidazo[1,2-b]pyridazin-2-yl)-2-(trifluoromethyl)phenyl)-3,3,3-trifluoro-2,2-dimethylpropanamide]?
Answer: IC50 [1, 4]: 1400 nM; IC50 [2, 7]: 875 nM

Question: With CC1CN(C2CCN(c3ccc4nc(-c5ccc(C(F)(F)F)c(NC(=O)C(C)(C)C)c5)cn4n3)CC2)CC(C)O1 (stereo not shown) [Example 370, N-(5-(6-(4-(2,6-dimethylmorpholino)piperidin-1-yl)imidazo[1,2-b]pyridazin-2-yl)-2-(trifluoromethyl)phenyl)pivalamide] as the molecule, how does the IC50 [1, 4] read?
Answer: 321 nM

Question: What about the IC50 [2, 7] of the same molecule?
Answer: 333 nM

Question: With Cc1ccc(-c2cn3nc(-c4cccc(OCCCCCC(=O)NO)c4C(F)(F)F)ccc3n2)cc1NC(=O)C(C)(C)C [Example 438, N-hydroxy-6-(3-(2-(4-methyl-3-pivalamidophenyl)imidazo[1,2-b]pyridazin-6-yl)-2-(trifluoromethyl)phenoxy)hexanamide] as the molecule, how does the IC50 [1, 4] read?
Answer: 1160 nM

Question: And the IC50 [2, 7]?
Answer: 2600 nM

Question: For Cc1c(-c2ccccc2)nc2ccc(N3CCN(Cc4ccccn4)CC3)nn12 [Example 160, 3-methyl-2-phenyl-6-(4-(pyridin-2-ylmethyl)piperazin-1-yl)imidazo[1,2-b]pyridazine], which IC50 [1, 4] is on record?
Answer: 2510 nM

Question: And the IC50 [2, 7]?
Answer: 627 nM

Question: How did the IC50 [1, 4] turn out when Cc1ccc(-c2cn3nc(-c4ccc(C(C)(C)O)cc4C(F)(F)F)ccc3n2)cc1NC(=O)C(C)(C)C [compound 533] was run?
Answer: 301 nM

Question: What about the IC50 [2, 7] of the same molecule?
Answer: 449 nM
